Source: patent US10357464B2, “Methods for delivering volatile anesthetics for regional anesthesia and/or pain relief” (The Board of Regents of the University of Texas System, priority 2006, dated 2019)
Several values for one entry are separate records, joined by “and”; a condition that tells them apart may be missing. Equal values may be shown once.

Key:
[1] = test system: thermal C-fiber pain pathway; assay: Hotplate test after intrathecal injection of isoflurane dissolved in saline (Study C); type: in vivo, rat; settings: 5 microliter isoflurane dissolved in saline
Description: Isoflurane was dissolved into saline using the following method (also referred to as the “bubbling” method). Study C: A mock vaporizing device was created using a 500 ml modified Erlenmeyer flask (2 inlets and 1 catheter into the liquid phase). The flask was partially filled with 0.9% normal saline and a stoppered glass pipette was inserted into the bottom of the liquid phase for injection of isoflurane. A second egress pipette allowed egress of gas from the closed container. 2% isoflurane solution in oxygen at 2 L/min was injected through the pipette, saturating the 0.9% saline solution after approximately 10 minutes of injection. 5 mL was drawn from the saturated saline solution and administered to […] using the procedures outlined in Example I above. For study C, all animals were prepared as for experiments A and B. The inventors injected 4 animals with 5 microliter of dissolved isoflurane solution (as prepared in 0030) via intrathecal catheter. Note, control (baseline) latency to paw withdrawal is different in Study C due to a different intensity of heat lamp used. Each animal serves as its own control in study C. Study C Data is presented here: in seconds to paw withdrawal to heat source. Table and graphic format.

[2] = test system: thermal C-fiber pain pathway; assay: Hotplate test after intrathecal isoflurane dissolved in artificial cerebrospinal fluid (ACSF); type: in vivo, rat
Description: Pain sensitivity was measured after intrathecal administration of isoflurane in artificial cerebrospinal fluid (ACSF). Further, as detailed below, the isoflurane was first dissolved in ACSF and then sonicated before administration. The dose response relationship was then evaluated by generating a stimulus-response (SR) graph in order to determine relevant concentrations of isoflurane that may be administered intrathecally to achieve analgesia or anesthesia. The characterization of the pharmacological profile of intrathecal administration of isoflurane in ACSF was performed in this example using rats; further, as would be appreciated by one of skill in the art, analogous approaches may be used to determine the precise pharmacological profile in humans. Isoflurane dissolved in ACSF was prepared by the following method. […] The dose response relationship was then evaluated by generating a stimulus-response (SR) graph in order to standardize responses across animals and determine relevant concentrations of isoflurane that may be administered intrathecally to achieve analgesia or anesthesia. […] MPE is calculated as ((drug response time—baseline response time)/(cutoff time−baseline response time))*100. […]

[3] = Observation of adverse effects and recovery after intrathecal injection; type: in vivo, rat; settings: intrathecal injection of 2 microliters, rats
Description: These rats were then allowed time to recover from their intrathecal injection. There were no apparent adverse effects such as respiratory depression, cardiac, or neurological compromise. At 30 minutes after the injection, the rats were tested again, according to grouping:
This study also shed some light into the safety of intrathecally delivering active agent gases.

[4] = test system: thermal C-fiber pain pathway; assay: Hotplate test (thermal withdrawal latency) after direct intrathecal injection of volatile anesthetic; settings: smallest intrathecally delivered dose of 2 microliters

FC(F)OC(Cl)C(F)(F)F (stereo not shown) [isoflurane, 1-chloro-2,2,2-trifluoroethyl difluoromethyl ether]
seconds to paw withdrawal to heat source, 5 MIN, mean ([1]; 5 min, mean of all readings (control mean 3.875)): 14.82 s | seconds to paw withdrawal to heat source, 5 MIN ([1]; 5 min, single readings per rat): 14.2 seconds and 20 seconds (3×) and 16 seconds and 9.8 seconds and 11.8 seconds (2×) and 9.1 seconds and 11 seconds and 15 seconds and 19.5 seconds and 10.9 seconds and 12.6 seconds and 18.1 seconds and 17.3 seconds | seconds to paw withdrawal to heat source, 10 MIN, mean ([1]; 10 min, mean of all readings): 9.181 s | seconds to paw withdrawal to heat source, 10 MIN ([1]; 10 min, single readings per rat): 12.2 seconds and 12 seconds (2×) and 9.1 seconds and 8.9 seconds and 8.8 seconds and 7.8 seconds and 10.2 seconds and 8.1 seconds and 5.4 seconds and 9 seconds (3×) and 6.8 seconds and 9.9 seconds and 8.7 seconds | seconds to paw withdrawal to heat source, 15 MIN, mean ([1]; 15 min, mean of all readings): 7.375 s | seconds to paw withdrawal to heat source, 15 MIN ([1]; 15 min, single readings per rat): 6.1 s and 7.1 s and 4.8 s and 5.2 s and 7.9 s and 6.4 s and 6.9 s and 4.3 s and 7.6 s and 7.3 s and 8.8 s and 7 s and 10.4 s and 9.4 s and 5.4 s and 13.4 s | seconds to paw withdrawal to heat source, 30 MIN, mean ([1]; 30 min, mean of all readings): 5.9375 s | seconds to paw withdrawal to heat source, 30 MIN ([1]; 30 min, single readings per rat): 5.2 seconds (2×) and 6.1 seconds and 5.8 seconds and 6.5 seconds and 4.9 seconds (2×) and 4.3 seconds and 4.7 seconds and 3.8 seconds and 6.8 seconds and 7.2 seconds and 8.2 seconds and 6.9 seconds and 8.1 seconds and 6.4 seconds | seconds to paw withdrawal to heat source, 60 MIN, mean ([1]; 60 min, mean of all readings): 4.456 s | seconds to paw withdrawal to heat source, 60 MIN ([1]; 60 min, single readings per rat): 4.2 seconds (2×) and 3.5 seconds (3×) and 3.3 seconds and 3.8 seconds (3×) and 6.1 seconds and 5.8 seconds and 5.1 seconds and 4.9 seconds and 4.7 seconds and 7 seconds and 4.1 seconds | maximal possible effect (MPE) ([2]; 10% v/v isoflurane in ACSF, 10 μl intrathecal (1.46 mg), 10 minutes after injection, cutoff 20 seconds): ~34% | analgesia (hind paw withdrawal threshold to radiant heat) ([2]; isoflurane in ACSF 10% v/v, 10 μL intrathecal, 1.46 mg dose): resulted in analgesia | adverse effects [3]: None of the rats in the study experienced adverse effects | analgesic effect (thermal latency time) [4]: analgesic effect

FCOC(C(F)(F)F)C(F)(F)F [sevoflurane]
adverse effects [3]: None of the rats in the study experienced adverse effects | analgesic effect (thermal latency time) [4]: analgesic effect
